From publication PMC5877387, “Nanoparticles engineered to bind cellular motors for efficient delivery” (Journal of Nanobiotechnology, 2018)

What was measured:
Vero cells = experiment: Inhibition assays of NP transport with cytoskeleton-depolymerizing drugs; format: cell-based; conditions: Nocodazole 2.5 µM, Latrunculin A 0.1 µM; 1.5 µM NPs, 37 °C
[1] = Cytotoxicity of inhibitors, trypan blue exclusion; conditions: at working concentrations (Nocodazole 2.5 µM, Latrunculin A 0.1 µM)

Structure (SMILES)	effect of drug on Au@DBP distribution, movement and spread (Vero cells)	cytotoxicity (cell death) after drug incubation [1]
C/C1=C/C(=O)O[C@@H]2C[C@@H](CC[C@H](C)/C=C\C=C\CC1)O[C@@](O)([C@@H]1CSC(=O)N1)C2 [Latrunculin A]	did not stop	≤ 10%
COC(=O)Nc1nc2ccc(C(=O)c3cccs3)cc2[nH]1 [Nocodazole]	reversibly stopped	≤ 10%
